Measured values as given in the NIST ThermoML archive (doi:10.1021/je0602824).

Test: xn = mol fraction of the nth substance listed
Conditions: 101 kPa, Liquid

CCOS(=O)(=O)[O-].CCn1cc[n+](C)c1 [1-ethyl-3-methylimidazolium ethyl sulfate] + O
Conditions | mass density [kg/m3] | viscosity [mPa·s]
278.15 K, x2 = 0 | 1251.12 | 308
278.15 K, x2 = 0.0001 | – | 308
278.15 K, x2 = 0.2112 | 1246.59 | –
278.15 K, x2 = 0.2245 | – | 150
278.15 K, x2 = 0.4084 | – | 83
278.15 K, x2 = 0.4119 | 1239.56 | –
278.15 K, x2 = 0.5939 | 1227.74 | –
278.15 K, x2 = 0.5976 | – | 45
278.15 K, x2 = 0.7669 | 1201.83 | –
278.15 K, x2 = 0.7675 | – | 22
278.15 K, x2 = 0.8487 | 1175.63 | –
278.15 K, x2 = 0.9292 | 1120.63 | 6
278.15 K, x2 = 0.9683 | 1066.86 | –
278.15 K, x2 = 0.9916 | 1021.13 | –
288.15 K, x2 = 0 | 1244.13 | 166
288.15 K, x2 = 0.2112 | 1239.79 | –
288.15 K, x2 = 0.2245 | – | 86
288.15 K, x2 = 0.4084 | – | 49
288.15 K, x2 = 0.4119 | 1232.7 | –
288.15 K, x2 = 0.5939 | 1220.8 | –
288.15 K, x2 = 0.5976 | – | 27
288.15 K, x2 = 0.7669 | 1194.85 | –
288.15 K, x2 = 0.7675 | – | 14
288.15 K, x2 = 0.8487 | 1168.83 | –
288.15 K, x2 = 0.9292 | 1115.02 | 5
288.15 K, x2 = 0.9683 | 1063.25 | –
288.15 K, x2 = 0.9916 | 1019.46 | –
298.15 K, x2 = 0 | 1237.37 | 95
298.15 K, x2 = 0.2112 | 1232.99 | –
298.15 K, x2 = 0.2245 | – | 54
298.15 K, x2 = 0.4084 | – | 33
298.15 K, x2 = 0.4119 | 1225.85 | –
298.15 K, x2 = 0.5939 | 1213.87 | –
298.15 K, x2 = 0.5976 | – | 19
298.15 K, x2 = 0.7669 | 1187.81 | –
298.15 K, x2 = 0.7675 | – | 10
298.15 K, x2 = 0.8487 | 1161.92 | –
298.15 K, x2 = 0.9292 | 1109.14 | 4
298.15 K, x2 = 0.9683 | 1059.04 | –
298.15 K, x2 = 0.9916 | 1016.78 | –
308.15 K, x2 = 0 | 1230.61 | 62
308.15 K, x2 = 0.2112 | 1226.21 | –
308.15 K, x2 = 0.2245 | – | 36
308.15 K, x2 = 0.4084 | – | 23
308.15 K, x2 = 0.4119 | 1219.02 | –
308.15 K, x2 = 0.5939 | 1206.92 | –
308.15 K, x2 = 0.5976 | – | 14
308.15 K, x2 = 0.7669 | 1180.72 | –
308.15 K, x2 = 0.7675 | – | 8
308.15 K, x2 = 0.8487 | 1154.9 | –
308.15 K, x2 = 0.9292 | 1103 | 4
308.15 K, x2 = 0.9683 | 1054.27 | –
308.15 K, x2 = 0.9916 | 1013.26 | –
318.15 K, x2 = 0 | 1223.9 | 41
318.15 K, x2 = 0.2112 | 1219.45 | –
318.15 K, x2 = 0.2245 | – | 26
318.15 K, x2 = 0.4084 | – | 17
318.15 K, x2 = 0.4119 | 1212.21 | –
318.15 K, x2 = 0.5939 | 1199.97 | –
318.15 K, x2 = 0.5976 | – | 11
318.15 K, x2 = 0.7669 | 1173.56 | –
318.15 K, x2 = 0.7675 | – | 6
318.15 K, x2 = 0.8487 | 1147.77 | –
318.15 K, x2 = 0.9292 | 1096.59 | 3
318.15 K, x2 = 0.9683 | 1049.01 | –
318.15 K, x2 = 0.9916 | 1009.03 | –
328.15 K, x2 = 0 | 1217.23 | 30
328.15 K, x2 = 0.2112 | 1212.74 | –
328.15 K, x2 = 0.2245 | – | 19
328.15 K, x2 = 0.4084 | – | 13
328.15 K, x2 = 0.4119 | 1205.41 | –
328.15 K, x2 = 0.5939 | 1193.01 | –
328.15 K, x2 = 0.5976 | – | 9
328.15 K, x2 = 0.7669 | 1166.34 | –
328.15 K, x2 = 0.7675 | – | 6
328.15 K, x2 = 0.8487 | 1140.52 | –
328.15 K, x2 = 0.9292 | 1089.92 | 3
328.15 K, x2 = 0.9683 | 1043.29 | –
328.15 K, x2 = 0.9916 | 1004.16 | –
338.15 K, x2 = 0 | 1210.6 | 21
338.15 K, x2 = 0.2112 | 1206.05 | –
338.15 K, x2 = 0.2245 | – | 15
338.15 K, x2 = 0.4084 | – | 11
338.15 K, x2 = 0.4119 | 1198.63 | –
338.15 K, x2 = 0.5939 | 1186.03 | –
338.15 K, x2 = 0.5976 | – | 7
338.15 K, x2 = 0.7669 | 1159.05 | –
338.15 K, x2 = 0.7675 | – | 5
338.15 K, x2 = 0.8487 | 1133.14 | –
338.15 K, x2 = 0.9292 | 1083 | 3
338.15 K, x2 = 0.9683 | 1037.15 | –
338.15 K, x2 = 0.9916 | 998.72 | –
348.15 K, x2 = 0 | 1204.01 | 17
348.15 K, x2 = 0.2112 | 1199.4 | –
348.15 K, x2 = 0.2245 | – | 12
348.15 K, x2 = 0.4084 | – | 9
348.15 K, x2 = 0.4119 | 1191.91 | –
348.15 K, x2 = 0.5939 | 1179.05 | –
348.15 K, x2 = 0.5976 | – | 6
348.15 K, x2 = 0.7669 | 1151.68 | –
348.15 K, x2 = 0.7675 | – | 4
348.15 K, x2 = 0.8487 | 1125.7 | –
348.15 K, x2 = 0.9292 | 1075.83 | 2
348.15 K, x2 = 0.9683 | 1030.61 | –
348.15 K, x2 = 0.9916 | 992.76 | –
